Literature values as cited in the PKSmart pharmacokinetics tables (Seal et al. 2025).
*1 amine or outer side, *2 acyl side, *3 side chain or, on linkers, in order; H or OH if unused. Where a SMILES comes first, the peptide text is derived from it. Bridges are numbered along the chain shown (N, C = ends). [ ]: non-standard residue; d: D form. The star is where a group is joined. ξ: configuration not given here. X2 = CC[C@H](C)[C@@H](N[*:1])[C@@H](O)CC(=O)OC(C(=O)C(C)C(=O)[*:2])C(C)C; ξThr(3R)(O-yl) = C[C@@H](O[*:3])C(N[*:1])C(=O)[*:2]; ξNMeY = CNC(Cc1ccc(O)cc1)C(=O)O; ξNMeL = CNC(CC(C)C)C(=O)O; Pyruvoyl = CC(=O)C(=O)*; ξL = CC(C)CC(N)C(=O)O; ξP = O=C(O)C1CCCN1

Assay: Lombardo, Berellini, Obach 2018, Drug Metab Dispos 46:1466, doi 10.1124/dmd.118.082966
Details: human; for MRT / Vd / clearance / half-life: in vivo, iv; for fraction unbound: plasma

| SMILES | MRT [h] | Vd [L/kg] | clearance [mL/min/kg] | half-life [h] | fraction unbound |
| --- | --- | --- | --- | --- | --- |
| COc1cc(C(=O)C(=O)N2CCCCC2C(=O)OC(CCCc2cccnc2)CCCc2cccnc2)cc(OC)c1OC (centres undefined) | 2.62 | 1.34 | 8.5 | 1.1 | – |
| Nc1ccn([C@H]2CO[C@@H](CO)S2)c(=O)n1 | 6.5 | 1.18 | 3 | 19.2 | – |
| COc1ccc2c(c1)c(CC(=O)O)c(C)n2C(=O)c1ccc(Cl)cc1 | 1.2 | 0.096 | 1.3 | 1.4 | – |
| COc1c(-c2ccc3cc(NS(C)(=O)=O)ccc3c2)cc(-n2ccc(=O)[nH]c2=O)cc1C(C)(C)C | – | 2.13 | – | 5.7 | 0.005 |
| CC(=O)NCCCS(=O)(=O)O | 1.54 | 0.3 | 3.75 | 3.2 | 1 |
| CC1(C)O[C@@H]2C[C@H]3[C@@H]4CC=C5CC(=O)C=C[C@]5(C)[C@@]4(F)[C@@H](O)C[C@]3(C)[C@]2(C(=O)CO)O1 | 2.5 | 1.4 | 9.4 | 2.4 | 0.2 |
| CC1=NS(=O)(=O)c2cc(Cl)ccc2N1 | 58 | 0.21 | 0.06 | 48 | – |
| CCCNC(=O)NS(=O)(=O)c1ccc(Cl)cc1 | 70 | 0.19 | 0.045 | 46 | – |
| CCC1(c2cnc[nH]2)Cc2ccccc2C1 | 2.3 | 2.7 | 19.6 | 1.7 | – |
| C/C(=C\c1csc(C)n1)[C@@H]1C[C@@H]2O[C@]2(C)CCC[C@H](C)[C@H](O)C(C)C(=O)C(C)(C)[C@@H](O)CC(=O)O1 (some centres undefined) | 111 | 14.4 | 2.17 | 92.3 | 0.22 |
| C=C1CC[C@@]2(O)[C@H]3Cc4ccc(O)c5c4[C@@]2(CCN3CC2CC2)[C@H]1O5 | – | – | – | – | 0.65 |
| Cc1cc(O)c2c(=O)c3c(O)cc(O)c4c5c(O)cc(O)c6c(=O)c7c(O)cc(CO)c8c1c2c(c34)c(c65)c78 | 15 | 0.56 | 0.62 | 20 | – |
| C[C@H]1O[C@@H](O[C@H]2[C@@H](O)C[C@H](O[C@H]3[C@@H](O)C[C@H](O[C@H]4CC[C@@]5(C)[C@H](CC[C@@H]6[C@@H]5C[C@@H](O)[C@]5(C)[C@@H](C7=CC(=O)OC7)CC[C@]65O)C4)O[C@@H]3C)O[C@@H]2C)C[C@H](O)[C@@H]1O | 40 | 4.1 | 1.7 | 38 | – |
| O=C1c2ccc3ccccc3c2C(=O)N1CCNCCCNCCN1C(=O)c2ccc3ccccc3c2C1=O | 35.2 | 12 | 5.7 | 52.6 | – |
| Nc1nc(Cl)nc2c1ncn2[C@@H]1O[C@H](CO)[C@@H](O)[C@@H]1F | 3.8 | 1.75 | 7.7 | 4 | – |
| CN1CCN2c3ncccc3Cc3ccccc3C2C1 (centres undefined) | 8.8 | 4.2 | 8 | – | – |
| O=C(O)C1N=C(c2ccccc2)c2cc(Cl)ccc2NC1=O (centres undefined) | 3 | 0.2 | 1.1 | 2.4 | – |
| C[C@H]1CN(c2c(F)cc3c(=O)c(C(=O)O)cn(C4CC4)c3c2OC(F)F)CCN1 | 7.1 | 1.1 | 2.7 | 5.9 | – |
| CCCCCc1cc(O)c2c(c1)OC(C)(C)c1ccc(C)cc1-2 | 15.9 | 17 | 17.9 | 25.5 | – |
| CN1CCN2c3ccccc3Cc3ccccc3[C@H]2C1 | 10.5 | 13.8 | 21.9 | 9.6 | 0.05 |
| CC=CC1=C(C(=O)O)N2C(=O)C(NC(=O)C(N)c3ccc(O)cc3)[C@H]2SC1 (some centres undefined) | 1.2 | 0.21 | 2.9 | 1.2 | – |
| CCc1c(O)cc(O)c(C(=O)c2ccc(OCCN3CCOCC3)c(OC)c2)c1CC(=O)N(CCOC)CCOC | 3.21 | 1.32 | 6.87 | 5.94 | – |
| CN(C)CC/C=C1/c2ccccc2Sc2ccc(Cl)cc21 | 20.7 | 13.7 | 11.5 | 25.8 | – |
| Cc1[nH]c(=O)c(C#N)cc1-c1ccncc1 | 0.67 | 0.25 | 6.2 | 0.8 | – |
| O=C(NCCN1CCOCC1)c1ccc(Cl)cc1 | 1.8 | 1.1 | 10 | 1.5 | – |

| SMILES | MRT [h] | Vd [L/kg] | clearance [mL/min/kg] | half-life [h] | fraction unbound |
| --- | --- | --- | --- | --- | --- |
| CC(C)NCC(O)c1cc(O)cc(O)c1 (centres undefined) | 7.14 | 6.03 | 14.1 | 6.41 | 0.9 |
| Cn1c(CCCC(=O)O)nc2cc(N(CCCl)CCCl)ccc21 | 0.81 | 0.22 | 4.49 | 0.41 | 0.05 |
| O=C1CN=C(c2ccccc2Cl)c2cc(Br)ccc2N1 | 28.3 | 0.089 | 0.05 | 14.9 | – |
| CC[C@H](C)[C@H]1NC(=O)C(NC(=O)C(CC(C)C)N(C)C(=O)C2CCCN2C(=O)C(C)=O)[C@@H](C)OC(=O)C(Cc2ccc(OC)cc2)N(C)C(=O)C2CCCN2C(=O)C(CC(C)C)NC(=O)C(C)C(=O)C(C(C)C)OC(=O)C[C@@H]1O (stereo partly drawn) (Pyruvoyl-[ξP][ξNMeL][ξThr(3R)(O-yl)][X2][ξL][ξP][ξNMeY](Me); ester 3-C) | 14.5 | 6.95 | 8.05 | 16.6 | – |
| Cc1nc2c([nH]1)-c1ccccc1N(C(=O)c1ccc(NC(=O)c3ccccc3-c3ccccc3)cc1)CC2 | 4.2 | 0.76 | – | 6.7 | – |
| CCN(CC)CCNC(=O)c1cc(Cl)c(N)cc1OC(C)C(C)=O (centres undefined) | 2.68 | 1.5 | 9.32 | 2.7 | 0.46 |
| CC(NCc1ccc(OCc2cccc(F)c2)cc1)C(N)=O (centres undefined) | 31.2 | 2.19 | 1.17 | 21.7 | – |
| COC1=C(C(=O)O)N2C(=O)C(NC(=O)C(N)C3=CCC=CC3)[C@H]2SC1 (some centres undefined) | 0.59 | 0.17 | 4.78 | 0.74 | 0.1 |
| Nc1nc(=O)c2c([nH]1)NC[C@H](CNc1ccc(C(=O)NC(CCC(=O)O)C(=O)O)cc1)N2C=O (some centres undefined) | 1.1 | 0.27 | 4.1 | 1.1 | – |
| CC(C)n1c(/C=C/[C@H](O)C[C@H](O)CC(=O)O)c(-c2ccc(F)cc2)c2ccccc21 | 0.44 | 0.42 | – | 0.7 | – |
| CCCN(CCC)CCc1cccc2[nH]c(O)cc12 | 4.3 | 7.7 | 30 | 6 | 0.6 |
| CCC#CC[C@H](C)[C@H](O)C#C[C@H]1[C@H]2CC(=CCOCCCC(=O)O)C[C@H]2C[C@H]1O | 0.59 | 2.4 | 66.2 | 0.41 | – |
| Nc1nc(N/N=C/C2CCCCC2)nc2c1ncn2[C@@H]1O[C@H](CO)[C@@H](O)[C@H]1O | 0.19 | 0.4 | 35.8 | 0.21 | – |
| CC(=O)OCC1=C(C(=O)O)N2C(=O)C(NC(=O)CC#N)[C@H]2SC1 (some centres undefined) | 2.21 | 0.49 | 3.69 | 2.02 | – |
| O=P(O)(O)C(NC1CCCCCC1)P(=O)(O)O | 1.85 | 0.24 | 2.16 | 1.82 | 0.9 |
| CCN(CC)C(=O)[C@]1(c2ccccc2)C[C@@H]1CN | 8.17 | 4.51 | 8.17 | 6.48 | – |
| CCCn1c(=O)[nH]c(=O)c2nc[nH]c21 | 2.6 | 0.63 | 4 | 1.8 | 0.55 |
| CN(C)[C@@H](c1cccc(O)c1)[C@H]1CCCC[C@H]1O | – | – | 2.2 | 3.85 | – |
| COc1cccc2c1[C@H](CO)N1[C@H](C#N)[C@@H]3CC(C(=O)O)[C@H]([C@@H]1C2)N3C (some centres undefined) | 1.23 | 0.23 | 3.06 | 1.52 | – |
| CO[C@H]1C[C@@H](O[C@@H]2C(C)C(=O)O[C@H](C)[C@H](C)[C@H](O)C(C)C(=O)[C@@]3(CO3)C[C@H](C)[C@H](O[C@H]3O[C@@H](C)C[C@@H](N(C)C)[C@H]3O)[C@H]2C)O[C@@H](C)[C@@H]1O (some centres undefined) | 1.41 | 0.77 | 9.1 | 1.05 | 0.4 |
| CC1(C)S[C@@H]2C(/N=C/N3CCCCCC3)C(=O)N2C1C(=O)O (some centres undefined) | 1 | 0.37 | 6.3 | 1.1 | 0.9 |
| COc1ccc2[n-]c([S+](O)Cc3ncc(C)c(OC)c3C)nc2c1 (centres undefined) | 0.48 | 0.24 | 8.4 | 0.58 | – |
| O=c1ccc2ccc(OCCCCN3CCN(c4cccc5sccc45)CC3)cc2[nH]1 | 71 | 1.46 | 0.34 | 54.4 | 0.002 |
| C[C@](N)(Cc1ccc(O)c(O)c1)C(=O)O | 3.3 | 0.69 | 3.5 | 5.9 | – |
| CC(C)OC(=O)CCC/C=C/C[C@@H]1[C@@H](CC[C@@H](O)CCc2ccccc2)[C@H](O)C[C@@H]1O | – | – | 6.7 | 0.28 | 0.1 |
